Assays:
SETVI [1] = assay: Pre-emergence herbicidal action against SETVI; format: in vivo, Setaria viridis; conditions: dosage 80 g/ha
Outline: (§1)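 Herbicidal effect was assessed 3 weeks after treatment by visual comparison with untreated controls, 100% denoting dead plants. Aqueous WP or EC preparations had been applied at 600 to 800 l/ha with 0.2% wetting agent to the soil covering freshly sown seeds.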

AMARE [2] = assay: Pre-emergence herbicidal action against AMARE; format: in vivo, Amaranthus retroflexus
Outline: as §1

VERPE [3] = assay: Pre-emergence herbicidal action against VERPE; format: in vivo, Veronica persica
Outline: as §1

VIOTR [4] = assay: Post-emergence herbicidal action against VIOTR; format: in vivo, Viola tricolor
Outline: (§2)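 Herbicidal effect was scored visually in percent after about 3 weeks in the greenhouse. Plants had been raised in sandy loam and treated post-emergence at the one-leaf stage with formulated compound at 600 to 800 l/ha water plus 0.2% wetting agent.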

ECHCG [5] = assay: Pre-emergence herbicidal action against ECHCG; format: in vivo, Echinochloa crus-galli
Outline: as §1

VIOTR [6] = assay: Pre-emergence herbicidal action against VIOTR; format: in vivo, Viola tricolor
Outline: as §1

SETVI [7] = assay: Post-emergence herbicidal action against SETVI; format: in vivo, Setaria viridis
Outline: as §2

AVEFA [8] = assay: Post-emergence herbicidal action against AVEFA; format: in vivo, Avena fatua; conditions: 20 g/ha, visual assessment about 3 weeks after treatment, 100% = plants have died, 0% = like control plants
Protocol: Seeds of monocotyledonous and dicotyledonous weed and crop plants are laid out in sandy loam soil in wood-fiber pots, covered with soil and cultivated in a greenhouse under good growth conditions. 2 to 3 weeks after sowing, the test plants are treated at the one-leaf stage. The compounds of the invention, formulated in the form of wettable powders (WP) or as emulsion concentrates (EC), are then sprayed onto the green parts of the plants in the form of an aqueous suspension or emulsion at a water application rate equivalent to 600 to 800 l/ha, with addition of 0.2% wetting agent. After the test plants have been left to stand in the greenhouse under optimal growth conditions for about 3 weeks, the action of the preparations is assessed visually in comparison to untreated controls (herbicidal action in percent (%): 100% activity=the plants have died, 0% activity=like control plants). […] The tables below illustrate, in an illustrative manner, the post-emergence herbicidal action of the compounds of the invention, the herbicidal activity being stated in percent.

AVEFA [9] = assay: Pre-emergence herbicidal action against AVEFA; format: in vivo, Avena fatua; conditions: 80 g/ha, pre-emergence
Outline: as §1

PHBPU [10] = assay: Pre-emergence herbicidal action against PHBPU; format: in vivo, Pharbitis purpurea; conditions: dosage 80 g/ha
Outline: as §1

AMARE [11] = assay: Post-emergence herbicidal action against AMARE; format: in vivo, Amaranthus retroflexus; conditions: 20 g/ha, visual assessment about 3 weeks after treatment, 100% = plants have died, 0% = like control plants
Outline: as §2

MATIN [12] = assay: Pre-emergence herbicidal action against MATIN; format: in vivo, Matricaria inodora
Outline: as §1

PHBPU [13] = assay: Post-emergence herbicidal action against PHBPU; format: in vivo, Pharbitis purpurea; conditions: dosage 20 g/ha
Outline: as §2

VERPE [14] = assay: Post-emergence herbicidal action against VERPE; format: in vivo, Veronica persica; conditions: 20 g/ha
Outline: as §2

ALOMY [15] = assay: Post-emergence herbicidal action against ALOMY; format: in vivo, Alopecurus myosuroides; conditions: dosage 20 g/ha, visual assessment about 3 weeks after treatment vs untreated controls
Outline: as §2

ECHCG [16] = assay: Post-emergence herbicidal action against ECHCG; format: in vivo, Echinochloa crus-galli
Outline: as §2

MATIN [17] = assay: Post-emergence herbicidal action against MATIN; format: in vivo, Matricaria inodora; conditions: dosage 20 g/ha
Outline: as §2

ALOMY [18] = assay: Pre-emergence herbicidal action against ALOMY; format: in vivo, Alopecurus myosuroides; conditions: 80 g/ha, pre-emergence, scored visually after 3 weeks vs untreated controls (100% = plants have died, 0% = like control plants)
Outline: as §1

ABUTH [19] = assay: Pre-emergence herbicidal action against ABUTH; format: in vivo, Abutilon theophrasti; conditions: for Pre-emergence action against ABUTH (herbicidal activity): 80 g/ha, scored visually after 3 weeks vs untreated controls (100% = plants have died, 0% = like control plants); for Pre-emergence action against ABUTH (herbicidal activity in percent): dosage 20 g/ha, scored visually after 3 weeks vs untreated controls, 100% = plants have died, 0% = like control plants
Outline: as §1

ABUTH [20] = assay: Post-emergence herbicidal action against ABUTH; format: in vivo, Abutilon theophrasti; conditions: dosage 20 g/ha, visual assessment about 3 weeks after treatment vs untreated controls
Outline: as §2

[21] = 20 g/ha, scored visually after 3 weeks vs untreated controls, 100% = plants have died, 0% = like control plants
[22] = 80 g/ha, scored visually after 3 weeks vs untreated controls (100% = plants have died, 0% = like control plants)

| Structure (SMILES) | Pre-emergence action against SETVI in % (SETVI [1]) [%] | Pre-emergence action against AMARE in % (AMARE [2]; [21]) [%] | Pre-emergence action against AMARE in % (AMARE [2]; [22]) [%] | Pre-emergence action against VERPE in % (VERPE [3]; dosage 80 g/ha) [%] | Post-emergence action against VIOTR in % (VIOTR [4]; 5 g/ha) [%] | Post-emergence action against VIOTR in % (VIOTR [4]; 20 g/ha) [%] | Pre-emergence action against ECHCG in % (ECHCG [5]; 80 g/ha) [%] | Pre-emergence action against VIOTR in % (VIOTR [6]; dosage 20 g/ha) [%] | Pre-emergence action against VIOTR in % (VIOTR [6]; dosage 80 g/ha) [%] | Post-emergence action at 20 g/ha against AVEFA in % (AVEFA [8]) [%] | Pre-emergence action against AVEFA in % (AVEFA [9]) [%] | Pre-emergence action against PHBPU in % (PHBPU [10]) [%] | Post-emergence action at 20 g/ha against AMARE in % (AMARE [11]) [%] | Pre-emergence action against MATIN in % (MATIN [12]; dosage 20 g/ha) [%] | Pre-emergence action against MATIN in % (MATIN [12]; dosage 80 g/ha) [%] | Post-emergence action against PHBPU in % (PHBPU [13]) [%] | Post-emergence action against VERPE in % (VERPE [14]) [%] | Post-emergence action against ALOMY in % (ALOMY [15]) [%] | Post-emergence action against ECHCG in % (ECHCG [16]; dosage 5 g/ha) [%] | Post-emergence action against ECHCG in % (ECHCG [16]; dosage 20 g/ha) [%] | further results |
| --- | --- | --- | --- | --- | --- | --- | --- | --- | --- | --- | --- | --- | --- | --- | --- | --- | --- | --- | --- | --- | --- |
| CCn1nnnc1NC(=O)c1ccc(C(F)(F)F)c(C(=O)NCC2CC2)c1SC [Example 2-84] | 100 | 100 | 100 | 80 | 100 | 100 | 100 | 80 | 100 | 100 | 100 | 90 | 100 | 100 | 100 | 80 | 80 | 90 | 100 | 100 | Pre-emergence action against VERPE in % (VERPE [3]; dosage 20 g/ha): 80%; Pre-emergence action against ECHCG in % (ECHCG [5]; 20 g/ha): 90%; Post-emergence action against SETVI in % (SETVI [7]; dosage 5 g/ha): 80%; Post-emergence action against SETVI in % (SETVI [7]; dosage 20 g/ha): 100%; Post-emergence action against MATIN in % (MATIN [17]): 80%; Pre-emergence action against ALOMY (herbicidal activity) (ALOMY [18]): 90%; Pre-emergence action against ABUTH (herbicidal activity) (ABUTH [19]): 100%; Pre-emergence action against ABUTH (herbicidal activity in percent) (ABUTH [19]): 100%; Post-emergence action against ABUTH in % (ABUTH [20]): 90% |
| CCn1nnnc1NC(=O)c1ccc(C(F)F)c(C(=O)NC(C)C2CC2)c1SC (stereo not drawn) [Example 2-351] | 100 | 100 | 100 | 100 | 100 | 100 | 100 | 100 | 100 | 80 | 80 | 80 | 100 | 100 | 100 | 90 | 90 | 80 | 100 | 100 | Post-emergence action against MATIN in % (MATIN [17]): 80%; Pre-emergence action against ALOMY (herbicidal activity) (ALOMY [18]): 80%; Pre-emergence action against ABUTH (herbicidal activity) (ABUTH [19]): 100%; Pre-emergence action against ABUTH (herbicidal activity in percent) (ABUTH [19]): 80%; Post-emergence action against ABUTH in % (ABUTH [20]): 80% |

Reference: US12655116B2, “Substituted isophthalic acid diamides” (Bayer Aktiengesellschaft, priority 2020, dated 2026)
